Measured values reported in paper PMC11457865, “The HIV latency reversing agent HODHBt inhibits the phosphatases PTPN1 and PTPN2” (JCI Insight, 2024).
pIC50: −log10 of the molar value.

Tests used:
PTPN1 (PTP1B) = molecular target: T1, PTPN1 (PTP1B) (Homo sapiens, UniProt P18031); assay: fluorogenic phosphatase assay with Lineweaver-Burk kinetics; also CETSA on purified catalytic domain, CD4 T cell lysates, and TPP in live PBMCs and K562 cells; format: biochemical
T1 construct: catalytic domain (fluorogenic PTP1B catalytic domain assay kit, BPS Bioscience 79764; purified catalytic domain 1-301 for CETSA)
T1 sequence (P18031 1-301): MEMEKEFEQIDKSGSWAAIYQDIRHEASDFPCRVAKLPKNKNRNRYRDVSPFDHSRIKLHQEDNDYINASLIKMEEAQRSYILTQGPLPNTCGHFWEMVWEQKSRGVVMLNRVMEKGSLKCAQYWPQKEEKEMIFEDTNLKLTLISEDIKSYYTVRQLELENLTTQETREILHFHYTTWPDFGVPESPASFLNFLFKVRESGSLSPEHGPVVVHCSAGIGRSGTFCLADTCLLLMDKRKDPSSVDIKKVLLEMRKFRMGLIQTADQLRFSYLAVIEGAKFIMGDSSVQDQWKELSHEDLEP

PTPN2 (TC-PTP) = molecular target: T2, PTPN2 (TC-PTP) (Homo sapiens, UniProt P17706); assay: fluorogenic phosphatase assay with Lineweaver-Burk kinetics; also CETSA on purified catalytic domain (destabilization), CD4 T cell lysates, and TPP in live PBMCs and K562 cells; format: biochemical
T2 construct: catalytic domain (recombinant GST-tag TC-PTP, BPS Bioscience 30013)
T2 sequence (P17706 1-317 limits assumed): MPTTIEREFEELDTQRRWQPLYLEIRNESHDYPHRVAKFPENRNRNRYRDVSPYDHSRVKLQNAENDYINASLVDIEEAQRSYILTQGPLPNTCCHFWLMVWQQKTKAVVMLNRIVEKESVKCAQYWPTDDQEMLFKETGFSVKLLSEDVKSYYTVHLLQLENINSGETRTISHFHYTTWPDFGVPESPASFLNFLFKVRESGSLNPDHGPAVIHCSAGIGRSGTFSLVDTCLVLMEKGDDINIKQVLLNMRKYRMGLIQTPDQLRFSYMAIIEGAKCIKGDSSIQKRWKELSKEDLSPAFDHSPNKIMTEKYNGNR

O=c1c2ccccc2nnn1O [HODHBt, 3-Hydroxy-1,2,3-benzotriazin-4(3H)-one]
pIC50 (PTPN1 (PTP1B)): 3.22 | pIC50 (PTPN2 (TC-PTP)): 3.26
